According to patent US10106538B2, “Inhibitors of protein kinases” (PRINCETON DRUG DISCOVERY INC, priority 2015, dated 2018):

How the values were obtained:
Experiment in all cases: Off-chip Mobility Shift Assay (MSA) kinase inhibition
Type in all cases: biochemical
MAP2K6 = target: T1, MAP2K6 (Homo sapiens, UniProt P52564); settings: inhibitor concentration 1 μM
T1 construct: purchased Carna Biosciences
Description: (§1) Off-chip Mobility Shift Assay (MSA) by Cama Biosciences, Inc (Natick, Mass.) a used for measuring the kinase activity and inhibition. • 1) The 5 μL of x4 compound solution, 5 μL of x4 Substrate/ATP/Metal solution, and 10 μL of x2 kinase solution were prepared with assay buffer (20 mM HEPES, 0.01% Triton X100, 2 mM DTT, pH 7.5) and mixed and incubated in a well of polypropylene 384 well microplate for 1 or 5 hour(s)* at room temperature. (*; depending on kinase) • 2) 70 μL of Termination Buffer (QuickScout Screening Assist A; Cama Biosciences) was added to the welt • 3) The reaction mixture was applied to LabChip system (Perkin Elmer), and the product and substrate peptide peaks were separated and quantitated. • 4) The kinase reaction was evaluated by the product ratio calculated from peak heights of product (P) and substrate (S) peptides (P/(P+S)). • 5) The reaction conditions were followed according to assay protocols of Ca n Biosciences, Inc (BMA 3F, 1-5-5 Minatojima-Minamimachi, Chuo-ku, Kobe 650-0047, Japan; www.carnabio.com). • 6 Data analysis: The readout value of reaction control (complete reaction mixture) was set as a 0% inhibition, and the readout value of background (Enzyme (−)) was set as a 100% inhibition, then the percent inhibition of each test solution was calculated, […]

BLK = target: T2, BLK (Homo sapiens, UniProt P51451)
T2 construct: purchased Carna Biosciences
T2 sequence (P51451 whole entry): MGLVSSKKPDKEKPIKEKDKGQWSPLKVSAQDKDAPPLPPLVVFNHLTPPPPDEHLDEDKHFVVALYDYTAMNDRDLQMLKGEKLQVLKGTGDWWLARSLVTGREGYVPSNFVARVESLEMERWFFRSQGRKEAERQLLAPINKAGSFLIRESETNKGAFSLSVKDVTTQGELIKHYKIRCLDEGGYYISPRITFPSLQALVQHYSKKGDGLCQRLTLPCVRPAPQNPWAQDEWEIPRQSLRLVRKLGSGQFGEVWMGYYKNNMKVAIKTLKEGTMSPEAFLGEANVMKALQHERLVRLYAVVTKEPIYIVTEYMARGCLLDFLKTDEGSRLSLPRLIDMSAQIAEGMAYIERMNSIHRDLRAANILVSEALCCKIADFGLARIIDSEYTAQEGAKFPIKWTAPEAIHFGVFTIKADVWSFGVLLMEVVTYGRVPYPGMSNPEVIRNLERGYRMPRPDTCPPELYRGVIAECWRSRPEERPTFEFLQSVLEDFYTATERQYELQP
Description: as §1

ROCK2 = target: T3, ROCK2 (Homo sapiens, UniProt O75116); settings: inhibitor concentration 1 μM
T3 construct: purchased Carna Biosciences
Description: as §1

MAP2K7 = target: T4, MAP2K7 (Homo sapiens, UniProt O14733); settings: inhibitor concentration 1 μM
T4 construct: purchased Carna Biosciences
T4 sequence (O14733 whole entry): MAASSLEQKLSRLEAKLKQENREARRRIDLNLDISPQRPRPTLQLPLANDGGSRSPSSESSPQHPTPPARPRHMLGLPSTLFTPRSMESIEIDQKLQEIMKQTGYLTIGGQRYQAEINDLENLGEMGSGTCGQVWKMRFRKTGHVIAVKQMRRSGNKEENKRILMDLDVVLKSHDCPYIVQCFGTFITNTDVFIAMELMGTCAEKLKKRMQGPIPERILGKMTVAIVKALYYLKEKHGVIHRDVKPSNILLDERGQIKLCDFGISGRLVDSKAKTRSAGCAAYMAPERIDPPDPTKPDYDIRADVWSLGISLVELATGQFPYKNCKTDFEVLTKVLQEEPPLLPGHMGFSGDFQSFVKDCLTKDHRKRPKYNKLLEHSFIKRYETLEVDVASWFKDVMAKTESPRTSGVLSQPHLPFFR
Description: as §1

ACK = target: T5, ACK (Homo sapiens, UniProt Q07912)
T5 construct: purchased Carna Biosciences
T5 sequence (Q07912 whole entry): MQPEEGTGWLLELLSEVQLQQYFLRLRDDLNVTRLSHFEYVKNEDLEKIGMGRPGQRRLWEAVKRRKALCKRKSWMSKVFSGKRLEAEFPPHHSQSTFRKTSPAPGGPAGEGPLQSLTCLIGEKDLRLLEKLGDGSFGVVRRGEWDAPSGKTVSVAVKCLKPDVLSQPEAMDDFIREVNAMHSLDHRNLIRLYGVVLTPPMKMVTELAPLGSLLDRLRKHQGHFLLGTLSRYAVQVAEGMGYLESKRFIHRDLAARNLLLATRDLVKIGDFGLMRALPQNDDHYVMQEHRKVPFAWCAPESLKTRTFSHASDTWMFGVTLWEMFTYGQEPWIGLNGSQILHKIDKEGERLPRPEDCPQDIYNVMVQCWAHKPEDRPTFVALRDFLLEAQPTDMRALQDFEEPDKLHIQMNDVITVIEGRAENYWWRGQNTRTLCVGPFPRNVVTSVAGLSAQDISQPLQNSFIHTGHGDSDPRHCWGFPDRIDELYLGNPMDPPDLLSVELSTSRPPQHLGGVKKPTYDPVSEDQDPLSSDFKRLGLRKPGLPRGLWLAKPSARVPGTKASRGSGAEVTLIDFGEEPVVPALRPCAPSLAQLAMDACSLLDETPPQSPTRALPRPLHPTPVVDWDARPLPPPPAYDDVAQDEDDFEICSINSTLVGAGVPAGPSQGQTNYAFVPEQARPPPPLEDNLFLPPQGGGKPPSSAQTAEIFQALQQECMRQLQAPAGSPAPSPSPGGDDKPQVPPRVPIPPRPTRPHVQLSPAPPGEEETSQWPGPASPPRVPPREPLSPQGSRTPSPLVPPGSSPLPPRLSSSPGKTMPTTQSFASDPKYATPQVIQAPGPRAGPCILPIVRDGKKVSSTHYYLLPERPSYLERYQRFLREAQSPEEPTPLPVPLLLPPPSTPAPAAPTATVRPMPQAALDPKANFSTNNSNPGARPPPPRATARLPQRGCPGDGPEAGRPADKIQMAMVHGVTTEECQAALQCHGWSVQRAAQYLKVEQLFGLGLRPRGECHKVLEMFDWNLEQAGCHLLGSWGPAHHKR
Description: as §1

YES = target: T6, YES (Homo sapiens, UniProt P07947)
T6 construct: purchased Carna Biosciences
T6 sequence (P07947 whole entry): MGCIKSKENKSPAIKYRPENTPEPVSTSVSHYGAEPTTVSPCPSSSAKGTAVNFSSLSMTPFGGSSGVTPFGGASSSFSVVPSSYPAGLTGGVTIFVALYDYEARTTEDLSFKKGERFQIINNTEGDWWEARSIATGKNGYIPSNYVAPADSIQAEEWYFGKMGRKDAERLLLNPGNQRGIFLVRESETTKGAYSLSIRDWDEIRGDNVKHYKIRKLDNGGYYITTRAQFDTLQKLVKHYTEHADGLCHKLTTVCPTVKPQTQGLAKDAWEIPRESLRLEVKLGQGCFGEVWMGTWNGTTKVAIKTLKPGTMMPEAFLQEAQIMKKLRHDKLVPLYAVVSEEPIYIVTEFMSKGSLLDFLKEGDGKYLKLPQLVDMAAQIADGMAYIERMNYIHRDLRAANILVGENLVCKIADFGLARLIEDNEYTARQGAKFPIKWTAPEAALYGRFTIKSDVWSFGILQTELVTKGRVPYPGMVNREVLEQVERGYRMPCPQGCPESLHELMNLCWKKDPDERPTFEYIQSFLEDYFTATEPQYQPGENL
Description: as §1

MST1 = target: T7, MST1 (Homo sapiens, UniProt Q13043)
T7 construct: purchased Carna Biosciences
T7 sequence (Q13043 1-487): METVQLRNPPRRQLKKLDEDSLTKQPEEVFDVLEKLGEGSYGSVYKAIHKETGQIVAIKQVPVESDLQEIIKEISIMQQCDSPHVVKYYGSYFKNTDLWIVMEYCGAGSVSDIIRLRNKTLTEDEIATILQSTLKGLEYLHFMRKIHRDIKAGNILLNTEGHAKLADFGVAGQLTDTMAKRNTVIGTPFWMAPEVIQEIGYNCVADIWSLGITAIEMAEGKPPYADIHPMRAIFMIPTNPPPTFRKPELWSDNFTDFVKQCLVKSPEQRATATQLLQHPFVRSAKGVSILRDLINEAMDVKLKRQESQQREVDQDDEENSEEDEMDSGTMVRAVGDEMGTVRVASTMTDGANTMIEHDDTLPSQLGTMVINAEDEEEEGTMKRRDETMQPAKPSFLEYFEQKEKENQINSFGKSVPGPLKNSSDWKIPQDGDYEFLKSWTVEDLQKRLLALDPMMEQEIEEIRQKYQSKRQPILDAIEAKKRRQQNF
Description: as §1

FGFR1 = target: T8, FGFR1 (Homo sapiens, UniProt P11362); settings: inhibitor concentration 1 μM
T8 construct: purchased Carna Biosciences
Description: as §1

FYN(isoform a) = target: T9, FYN(isoform a) (Homo sapiens, UniProt P06241)
T9 construct: purchased Carna Biosciences
T9 sequence (P06241 whole entry, canonical isoform): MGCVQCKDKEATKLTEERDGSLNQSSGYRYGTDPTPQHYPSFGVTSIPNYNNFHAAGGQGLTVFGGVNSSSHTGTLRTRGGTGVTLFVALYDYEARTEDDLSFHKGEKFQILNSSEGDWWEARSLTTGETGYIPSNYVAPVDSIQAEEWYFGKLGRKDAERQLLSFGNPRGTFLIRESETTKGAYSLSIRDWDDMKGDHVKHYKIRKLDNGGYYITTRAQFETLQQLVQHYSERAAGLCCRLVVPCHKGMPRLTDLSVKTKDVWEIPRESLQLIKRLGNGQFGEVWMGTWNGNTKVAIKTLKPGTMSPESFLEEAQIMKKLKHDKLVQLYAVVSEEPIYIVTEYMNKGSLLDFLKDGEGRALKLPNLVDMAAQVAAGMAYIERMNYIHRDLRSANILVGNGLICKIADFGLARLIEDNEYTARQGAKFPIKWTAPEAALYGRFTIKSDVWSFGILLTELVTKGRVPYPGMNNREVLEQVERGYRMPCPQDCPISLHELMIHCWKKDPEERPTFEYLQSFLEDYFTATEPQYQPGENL
Description: as §1

DDR2 = target: T10, DDR2 (Homo sapiens, UniProt Q16832)
T10 construct: purchased Carna Biosciences
T10 sequence (Q16832 22-855): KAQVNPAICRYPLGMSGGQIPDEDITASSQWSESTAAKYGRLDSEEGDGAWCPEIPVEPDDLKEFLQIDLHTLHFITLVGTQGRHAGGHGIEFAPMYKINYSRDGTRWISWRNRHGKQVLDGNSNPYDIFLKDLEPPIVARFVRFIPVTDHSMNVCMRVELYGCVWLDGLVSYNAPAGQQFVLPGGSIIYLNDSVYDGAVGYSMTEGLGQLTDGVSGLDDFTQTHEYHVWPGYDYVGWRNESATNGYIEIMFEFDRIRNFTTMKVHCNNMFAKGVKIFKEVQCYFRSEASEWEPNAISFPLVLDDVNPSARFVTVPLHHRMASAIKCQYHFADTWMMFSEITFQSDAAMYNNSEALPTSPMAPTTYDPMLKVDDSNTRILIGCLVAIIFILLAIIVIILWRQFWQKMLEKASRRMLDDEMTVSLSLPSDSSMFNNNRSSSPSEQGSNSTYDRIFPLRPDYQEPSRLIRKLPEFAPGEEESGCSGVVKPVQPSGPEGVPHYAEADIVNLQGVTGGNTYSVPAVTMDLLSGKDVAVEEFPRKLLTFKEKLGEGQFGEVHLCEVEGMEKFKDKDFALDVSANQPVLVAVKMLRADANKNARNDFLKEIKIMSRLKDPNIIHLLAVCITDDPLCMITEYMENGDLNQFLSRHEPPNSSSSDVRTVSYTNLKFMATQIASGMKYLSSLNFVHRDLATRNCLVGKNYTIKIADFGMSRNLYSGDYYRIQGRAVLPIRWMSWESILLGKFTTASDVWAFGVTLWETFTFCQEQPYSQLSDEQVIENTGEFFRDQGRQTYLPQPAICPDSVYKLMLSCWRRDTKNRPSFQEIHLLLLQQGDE
Description: as §1

FLT4 = target: T11, FLT4 (Homo sapiens, UniProt P35916); settings: inhibitor concentration 1 μM
T11 construct: purchased Carna Biosciences
Description: as §1

PKD2 = target: T12, PKD2 (Homo sapiens, UniProt Q9BZL6); settings: inhibitor concentration 1 μM
T12 construct: purchased Carna Biosciences
T12 sequence (Q9BZL6 whole entry): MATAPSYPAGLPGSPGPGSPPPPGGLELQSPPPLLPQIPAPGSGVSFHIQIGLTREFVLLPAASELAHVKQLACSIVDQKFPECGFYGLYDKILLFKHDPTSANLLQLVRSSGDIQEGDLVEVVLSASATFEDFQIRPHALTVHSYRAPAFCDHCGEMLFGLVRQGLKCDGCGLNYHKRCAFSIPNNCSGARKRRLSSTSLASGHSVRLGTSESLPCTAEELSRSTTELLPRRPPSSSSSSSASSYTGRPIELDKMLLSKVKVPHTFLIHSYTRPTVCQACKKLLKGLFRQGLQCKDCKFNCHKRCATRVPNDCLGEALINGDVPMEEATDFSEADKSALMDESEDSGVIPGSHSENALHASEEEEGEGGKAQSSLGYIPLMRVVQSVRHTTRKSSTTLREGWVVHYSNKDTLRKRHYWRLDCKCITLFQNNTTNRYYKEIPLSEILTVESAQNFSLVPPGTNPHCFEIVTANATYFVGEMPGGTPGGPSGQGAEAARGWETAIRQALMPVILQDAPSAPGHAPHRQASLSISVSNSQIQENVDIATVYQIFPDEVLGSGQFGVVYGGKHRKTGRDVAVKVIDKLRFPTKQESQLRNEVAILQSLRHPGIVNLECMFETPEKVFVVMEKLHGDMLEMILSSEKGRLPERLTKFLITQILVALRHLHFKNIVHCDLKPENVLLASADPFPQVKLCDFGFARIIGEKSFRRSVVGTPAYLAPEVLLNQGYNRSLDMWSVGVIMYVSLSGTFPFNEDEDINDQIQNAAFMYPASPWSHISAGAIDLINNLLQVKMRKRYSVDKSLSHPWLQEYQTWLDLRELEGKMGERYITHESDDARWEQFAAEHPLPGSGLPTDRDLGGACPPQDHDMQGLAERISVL
Description: as §1

WNK3 = target: T13, WNK3 (Homo sapiens, UniProt Q9BYP7); settings: inhibitor concentration 1 μM
T13 construct: purchased Carna Biosciences
Description: as §1

p38β = target: T14, p38β (Homo sapiens, UniProt Q15759); settings: inhibitor concentration 1 μM
T14 construct: purchased Carna Biosciences
T14 sequence (Q15759 whole entry): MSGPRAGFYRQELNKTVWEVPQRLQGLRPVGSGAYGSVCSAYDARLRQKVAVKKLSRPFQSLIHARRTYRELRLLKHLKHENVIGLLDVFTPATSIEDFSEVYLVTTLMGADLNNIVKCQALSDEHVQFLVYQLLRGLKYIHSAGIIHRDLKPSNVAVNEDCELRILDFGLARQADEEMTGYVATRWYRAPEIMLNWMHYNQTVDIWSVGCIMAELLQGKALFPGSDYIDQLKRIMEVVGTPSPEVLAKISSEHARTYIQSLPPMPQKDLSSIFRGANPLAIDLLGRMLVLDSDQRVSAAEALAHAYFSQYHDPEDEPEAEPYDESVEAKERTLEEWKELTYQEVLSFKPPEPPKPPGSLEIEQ
Description: as §1

MAP2K3 = target: T15, MAP2K3 (Homo sapiens, UniProt P46734); settings: inhibitor concentration 1 μM
T15 construct: purchased Carna Biosciences
T15 sequence (P46734 whole entry): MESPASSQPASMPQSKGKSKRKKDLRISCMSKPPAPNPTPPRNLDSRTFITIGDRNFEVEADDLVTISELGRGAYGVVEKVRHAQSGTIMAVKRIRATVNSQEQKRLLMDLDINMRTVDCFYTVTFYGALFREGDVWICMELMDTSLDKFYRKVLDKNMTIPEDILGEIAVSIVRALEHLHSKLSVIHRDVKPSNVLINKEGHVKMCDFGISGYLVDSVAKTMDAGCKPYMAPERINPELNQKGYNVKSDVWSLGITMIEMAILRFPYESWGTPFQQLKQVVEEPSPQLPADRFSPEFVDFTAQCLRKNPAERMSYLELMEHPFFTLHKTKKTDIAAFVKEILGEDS
Description: as §1

[1] = inhibitor concentration 0.01 μM

T1 sequence (P52564 whole entry): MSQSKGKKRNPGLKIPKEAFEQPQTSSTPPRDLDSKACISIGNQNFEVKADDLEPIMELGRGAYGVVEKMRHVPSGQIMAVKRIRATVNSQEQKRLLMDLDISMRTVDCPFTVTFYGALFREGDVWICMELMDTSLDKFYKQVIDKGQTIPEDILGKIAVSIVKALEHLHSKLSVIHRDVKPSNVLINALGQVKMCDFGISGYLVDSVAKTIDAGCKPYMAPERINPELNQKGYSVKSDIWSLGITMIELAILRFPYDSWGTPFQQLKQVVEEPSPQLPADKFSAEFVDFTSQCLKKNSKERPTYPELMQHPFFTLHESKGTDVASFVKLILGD

inhibition at 1 µM (MAP2K6): < 50%
inhibition at 0.01 µM (BLK; [1]): < 30%
inhibition at 0.1 µM (BLK; inhibitor concentration 0.1 μM): > 50%
inhibition at 1 µM (BLK; inhibitor concentration 1 μM): > 50%
inhibition at 1 µM (ROCK2): < 50%
inhibition at 1 µM (MAP2K7): < 50%
inhibition at 0.01 µM (ACK; [1]): < 30%
inhibition at 0.1 µM (ACK; inhibitor concentration 0.1 μM): < 50%
inhibition at 1 µM (ACK; inhibitor concentration 1 μM): > 50%
inhibition at 0.01 µM (YES; [1]): < 30%
inhibition at 0.1 µM (YES; inhibitor concentration 0.1 μM): > 50%
inhibition at 1 µM (YES; inhibitor concentration 1 μM): > 50%
inhibition at 0.01 µM (MST1; [1]): < 30%
inhibition at 0.1 µM (MST1; inhibitor concentration 0.1 μM): > 50%
inhibition at 1 µM (MST1; inhibitor concentration 1 μM): > 50%
inhibition at 1 µM (FGFR1): > 50%
inhibition at 0.01 µM (FYN(isoform a); [1]): < 30%
inhibition at 0.1 µM (FYN(isoform a); inhibitor concentration 0.1 μM): < 50%
inhibition at 1 µM (FYN(isoform a); inhibitor concentration 1 μM): > 50%
inhibition at 0.01 µM (DDR2; [1]): < 30%
inhibition at 0.1 µM (DDR2; inhibitor concentration 0.1 μM): > 50%
inhibition at 1 µM (DDR2; inhibitor concentration 1 μM): > 50%
inhibition at 1 µM (FLT4): > 50%
inhibition at 1 µM (PKD2): < 50%
inhibition at 1 µM (WNK3): > 50%
inhibition at 1 µM (p38β): > 50%
inhibition at 1 µM (MAP2K3): > 50%
Compound: O=C(c1c(F)ccc(NS(=O)(=O)CCCO)c1F)c1c[nH]c2ncc(-c3ccc(Cl)cc3)cc12 [200-17, N-[3-[5-(4-chlorophenyl)-1H-pyrrolo[2,3-b]pyridine-3-carbonyl]-2,4-difluorophenyl]-3-hydroxypropane-1-sulfonamide]
